Key:
5-LOX = biological target: T1, 5-LOX (Homo sapiens, UniProt P09917); details: of all the six boswellic acids; cited from earlier work
T1 sequence (P09917 1-674): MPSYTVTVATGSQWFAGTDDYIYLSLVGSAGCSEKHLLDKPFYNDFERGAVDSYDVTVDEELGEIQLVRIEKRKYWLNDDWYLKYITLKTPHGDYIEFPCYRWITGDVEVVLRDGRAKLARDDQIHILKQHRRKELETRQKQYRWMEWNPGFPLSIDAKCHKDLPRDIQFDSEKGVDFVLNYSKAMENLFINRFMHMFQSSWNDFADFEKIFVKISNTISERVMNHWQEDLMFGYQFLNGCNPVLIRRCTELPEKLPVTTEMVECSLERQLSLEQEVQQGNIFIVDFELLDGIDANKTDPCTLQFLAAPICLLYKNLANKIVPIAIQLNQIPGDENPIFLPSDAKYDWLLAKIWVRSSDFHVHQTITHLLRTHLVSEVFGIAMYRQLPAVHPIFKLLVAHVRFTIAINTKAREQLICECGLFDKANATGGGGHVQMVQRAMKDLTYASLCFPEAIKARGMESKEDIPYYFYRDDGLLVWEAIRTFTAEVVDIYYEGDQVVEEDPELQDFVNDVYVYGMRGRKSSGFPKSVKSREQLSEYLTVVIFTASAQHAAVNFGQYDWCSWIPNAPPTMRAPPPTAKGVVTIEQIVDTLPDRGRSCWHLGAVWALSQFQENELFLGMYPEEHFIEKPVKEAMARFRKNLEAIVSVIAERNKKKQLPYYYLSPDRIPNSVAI

[1] = system: Freund's Complete Adjuvant (FCA) challenged rats; test: Freund's Complete Adjuvant induced inflammation (paw volume) in rats; type: in vivo; details: 50 mg/kg daily in 1% CMC for 28 days, FCA on day 14, paw volumes at 28th day
Procedure: Test animals (rats, 200-300 g) of either sex were randomly distributed into different groups, with 5 animals in each group. Rats were supplemented daily with either demethylated curcuminoids (50 mg/kg) or enriched AKBA extract (50 mg/kg) or glucosamine (50 mg/kg), or reseveratrol (50 mg/kg), garlic extract (50 mg/kg) or ginger extract (50 mg/kg), or composition 7 (50 mg/kg) in 1% CMC for 28 days. The control group received same volume of vehicle (1% CMC); a standard drug, Prednisolone (10 mg/kg, orally) was used in the control treatment group. On the day 14, 100 μl of Freund's Complete Adjuvant (FCA) was injected subcutaneously in the sub planter region of the left hind paw. Blood samples were collected from each animal on the previous day of FCA challenge and at the day of termination of experiment i.e. 14 days after challenge. At the 28th day paw volumes were measured and after sacrificing the animals, liver tissues were excised and stored at −80° C. until further use.

SMILES | inhibitory activity against 5-LOX (in words) (5-LOX) | percent of inhibitions [1] [%]
CC(=O)O[C@H]1CC[C@@]2(C)C(CC[C@]3(C)C2C(=O)C=C2C4[C@@H](C)[C@@H](C)CC[C@]4(C)CC[C@@]23C)[C@]1(C)C(=O)O (stereo partly drawn) [AKBA, 3-O-acetyl-11-keto-β-boswellic acid] | most pronounced inhibitory activity | 
N[C@H]1C(O)O[C@H](CO)[C@@H](O)[C@@H]1O (stereo partly drawn) [Glucosamine, glucosamine] |  | 5.5
Oc1ccc(/C=C/c2cc(O)cc(O)c2)cc1 [Reseveratrol, reseveratrol] |  | 20.5

From patent US8420132B2, “Synergistic anti-inflammatory and antioxidant dietary supplement compositions” (Laila Impex, priority 2007, dated 2013)
